According to patent US20100104546A1, “MODULATORS OF ANTIGEN-DEPENDENT T CELL PROLIFERATION” (CHILDREN, YOUTH AND WOMEN'S HEALTH SERVICE, priority 2007, published 2010):

Tested on: splenocytes
Assay: Ex-vivo antigen (SRBC)-dependent splenocyte proliferation after administration to SRBC-immunized mice (thymidine incorporation)
Format: in vivo, Balb/c mice
Conditions: ip in mouse serum, between 10-80 mg/kg
Procedure: Mice were immunized with SRBC for 5 days. β-oxa-21:3n-3 was delivered in DMSO and injected intraperitoneally at the indicated doses. After 2 h spleens were removed and single cell suspensions were prepared. The splenocytes were cultured for 3 days in the presence (□), or absence (▪) of SRBC. Thymidine incorporation for final 16 hours of culture was determined. The data is expressed as mean±SEM of 3 separate experiments each in triplicate.
Mice were immunized with SRBC for 5 days. Then β-oxa-21:3n-3 dissolved in syngeneic mouse serum and injected intraperitoneally (A), intravenously (B) or gavaged/orally (C) at the indicated concentrations. After 2 h spleens were removed, single cell suspensions prepared and the splenocytes cultured for 3 days in the presence (▪), or absence (□) of SRBC. Thymidine incorporation for final 16 hours of culture was determined. The data is presented as the mean±SEM of 3 separate experiments separate experiments, each in quintuplets.
Mice were immunized with SRBC. After 5 days they were given β-thia-21:3n-3 at the indicated doses i.p. After 2 hours the spleens were removed and processed into single cell suppressions. These were then cultured in the presence (□), or absence of (▪) of SRBC to assess the proliferation. The results are expressed as mean±SEM of 3 experiments. (B) Effect of β-oxa-21:3n-3 on tetanus toxoid (TT)-induced ex vivo lymphocyte responses. Mice were immunized with TT subcutaneously and after 7 days were given β-oxa-21:3n-3 in mouse serum, intraperitoneally. Two hours later the spleen removed, single cell suspension prepared and examined for lymphoproliferation responses to TT in 5 day cultures. The results are expressed as mean±SEM of 3 experiments.
6-7 weeks old Balb/c mice were injected subcutaneously with 100 μl of 10% sheep red blood cells (IMVS, Inc., Adelaide, Australia) After 5 days 100 ul of β-oxa-21:3n-3 at indicated amounts were injected intraperitoneally, intravenously or gavaged orally. In another experimental set up mice were given β-tha-21:3n-3 i.p. In a third approach mice were infected subcutaneously with 100 μl of Tetanus Toxoid (2,500 Lf/ml). Then 7 days later were given β-oxa-21:3n-3. At indicated time points mice were sacrificed and spleens were removed. Single cell suspensions were prepared and white blood cells (WBC) were enriched by passing through Ficoll-Paque Plus (GE Healthcare). Cells were washed with RPMI-1640 containing 10% fetal bovine serum, 10 mM Hepes, antibiotics and glutamine (RPMI-10) and counted using an automated Cell-Dyne 3500R (Abbott, Inc. MA) instrument. Cells were viable (>98%) as judged by trypan blue exclusion. (β-oxa-21:3n-3)- or vehicle-treated mouse samples (200,000/well) were mixed either with SRBC (600,000/well) with 100 μl of Tetanus toxoid (50 Lf/ml) or phytohaemaglutinin (PHA) (2 μg/ml) or with PHA plus phorbol myristate acetate (PMA) (10 ng/ml) or with PMA plus calcium ionophore A23187 ([…]). Cells were cultured in 96 well U bottom plates (Nunc, Inc. Denmark) for 3 days (except for TT −5 days) at 37° C. under humidified air containing 5% CO2. At some instances 50 μl of supernatants were transferred to a new plate and frozen immediately at −70° C. to be used for cytokine measurements. Thymidine (50 μl, 1 μCi/well) was added at final 16 hours of culture. Cells were harvested and thymidine incorporation was determined using a beta scintillation counter.

## β-thia-21:3n-3
  lymphoproliferative response to SRBC: inhibition of the lymphoproliferative response in a dose dependent manner
